Results taken from patent publication EP0262209B1, “SYNERGISTIC PLANT GROWTH REGULATOR COMPOSITIONS” (RHONE POULENC NEDERLAND B.V., priority 1986, dated 1987).

Columns and labels:
snapbean plants [1] = assay: Combination/sequential applications, defoliation of snapbean plants (Example VIII, Table E); assay type: in vivo, Phaseolus vulgaris var. Cranberry; conditions: Rate 0.5 Pounds per Acre, applied alone
Experimental: (§1) Solutions of the test compounds and compositions identified in Table C below were prepared by dissolving the compounds in acetone/water (50:50 volume/volume) containing 0.1 percent volume/volume of Triton X-100 surfactant commercially available from Rhom and Haas Company, Philadelphia, Pennsylvania. As detailed below, these solutions of the test compounds and compositions were applied to snapbean plants at a concentration of 0.25 pounds of each active ingredient per acre (0.28 kg/ha) or 0.50 pounds of each active ingredient per acre (0.56 kg/ha). The compositions were applied to the snapbean plants as a mixture. Ethephon is commercially available from Union Carbide Agricultural Products Company, Inc., Research Triangle Park, North Carolina.
(§2) Into 13.5 centimeter diameter plastic pots containing a potting soil mix, i.e., one-third sandy loam soil, one-third peat moss and one-third perlite by volume, were sown three snapbean seeds (Phaseolus vulgaris var. Cranberry). Five to seven days after planting, the plants were thinned to one plant per pot. […] At 96 hours after treatment, percent defoliation of the snapbean plants was determined by visual observation. […]
In a manner similar to the procedure described in Example VI , the defoliation effect on snapbean plants was determined for representative synergistic compositions using both combination (tank mix) and sequential application methods. […]

rank growth cotton = assay: Defoliation of cotton (rank growth) (Example X, Table G); assay type: in vivo; conditions: Rate 2.0 Pounds per Acre
Experimental: (§3) Solutions of the test compounds and compositions identified in Table F were prepared by dissolving the compounds in acetone/water (50:50 volume/volume) containing 0.1 percent volume/volume of Surfel® spray adjuvant commercially available from Union Carbide Corporation, Danbury, Connecticut. As detailed below, these solutions of test compounds and compositions were applied to cotton plants at a concentration of 0.5 pounds of each active ingredient per acre (0,6 kg/ha) or 2.0 pounds of active ingredient per acre (2,2 kg/ha). The compositions were applied to cotton as mixtures.
(§4) The above solutions were applied to cotton plants growing under field conditions at a spray volume equivalent to 100 gallons per acre 935 l/ha) by use of a carbon dioxide backpack sprayer set at about 30 psig air pressure (2 bar). The application timing coincided with a cotton maturity phase equivalent to about 40 percent open bolls. As a control, a water-acetone solution containing no test compound or composition was also sprayed on the cotton plants. At four days after treatment, percent defoliation of the cotton plants was determined by visual observation. At 14 days after treatment, percent boll opening was determined by visual observation of the number of open bolls/total number of bolls. The percent defoliation and percent boll opening values obtained for the control and each of the test compounds and compositions are reported in Table F as the average of three replications. TABLE F
In a manner similar to the procedure described in Example IX , the defoliation effect on rank growth cotton was determined for representative synergistic compositions at various rates of application. […] TABLE G

cotton plants = assay: Defoliation and boll opening of cotton under field conditions (Example IX, Table F); assay type: in vivo; conditions: Rate 2.0 Pounds per Acre
Experimental: as §3, §4

cotton plant = assay: Regrowth of cotton following defoliation, DEF treated plant as standard (Example XIV, Table K); assay type: in vivo; conditions: for Percent Stimulation: regrowth relative to DEF standard (43 percent), 30 days after treatment
Experimental: as §3, §4
In a manner similar to the procedure described in Example IX , the effect of cotton regrowth after defoliation was determined for representative synergistic compositions at various rates of application. The percent regrowth inhibition and stimulation in Table R below were determined by visual observation based on the percent of a cotton plant having regrowth using a DEF treated cotton plant as the standard. DEF is commercially available from Mobay Chemical Corporation, Kansas City, Missouri. The average regrowth of a cotton plant treated with DEF was 43 percent. As used in Table R, percent regrowth inhibition resulted from a cotton plant having a regrowth percentage less than 43 percent (DEF standard), and percent regrowth stimulation resulted from a cotton plant having a regrowth percentage greater than 43 percent. The percent regrowth inhibition and stimulation were determined 30 days after treatment.

snapbean plants [2] = assay: Defoliation of snapbean plants, foliar spray (Example VI, Table C); assay type: in vivo, Phaseolus vulgaris var. Cranberry; conditions: Phaseolus vulgaris, foliar, 96 h, read-out: Percent Defoliation
Experimental: as §1
(§5) Into 13.5 centimeter diameter plastic pots containing a potting soil mix, i.e., one-third sandy loam soil, one-third peat moss and one-third perlite by volume, were sown three snapbean seeds (Phaseolus vulgaris var. Cranberry). Five to seven days after planting, the plants were thinned to one plant per pot. Ten to fourteen days after planting at the time of full expansion of the primary leaves, each concentration of the test compounds and compositions identified in […] (each pot sprayed with a volume equivalent to 180 gallons per acre) - i.e. 1683 l/ha was applied to three snapbean plants as a foliar spray by use of an aspirated spray apparatus set at 10 psig air pressure (517 mmHg). As a control, a water-acetone solution containing no test compound or composition was also sprayed on three snapbean plants. When dry, all or the plants were placed in a greenhouse at a temperature of 80°F ± 5°F (27°C ± 3°C) and humidity of 50 percent ± 5 percent. At 96 hours after treatment, percent defoliation of the snapbean plants was determined by visual observation. The values obtained For the control and each test compound and composition were averaged to obtain the results in Table C.

cotton [3] = assay: Sequential applications, defoliation of cotton (Example XI, Table H); assay type: in vivo; conditions: Rate 0.25 Pounds per Acre, alone
Experimental: In a manner similar to the procedure described in Example VI , the defoliation effect on snapbean plants was determined for representative synergistic compositions using both combination (tank mix) and sequential application methods. In the sequential application method, the second compound was applied 78 hours after the first compound. TABLE E
In a manner similar to the procedure described in Example VIII , the defoliation effect on cotton was determined for representative synergistic compositions using sequential application. Ethephon applications were made 7 days after application of the particular malonic acid derivative compound. TABLE H

snapbean plants [4] = assay: Defoliation of snapbean plants with various ethylene releasing agents (Example XVI, Table M); assay type: in vivo, Phaseolus vulgaris var. Cranberry
Experimental: as §1, §5
In a manner similar to the procedure described in Example VI , the defoliation effect on snapbean plants was determined for representative synergistic compositions at various rates of application using various ethylene releasing agents identified in Table M below. The ethylene releasing agents used in […] are known materials which can be prepared by conventional methods.

cotton [5] = assay: Defoliation of cotton at various rates (Example XII, Table I); assay type: in vivo; conditions: Rate 0.5 Pounds per Acre, alone
Experimental: as §3, §4
In a manner similar to the procedure described in Example IX , the defoliation effect on cotton was determined for representative synergistic compositions at various rates of application.

cotton [6] = assay: Defoliation of cotton at various rates (Example XIII, Table J); assay type: in vivo; conditions: Rate 0.5 Pounds per Acre, alone
Experimental: as §3, §4
In a manner similar to the procedure described in Example IX , the defoliation effect on cotton was determined for representative synergistic compositions at various rates of application. TABLE J

mature tobacco plants = assay: Leaf ripening (chlorosis) of tobacco (Example XV, Table L); assay type: in vivo; conditions: Rate 1.0 Pounds per Acre, alone; upper three leaves; 7 days after treatment; control 10
Experimental: as §1, with “Ethephon is commercially available from Union Carbide Agricultural Products Company, Inc., Research Triangle Park, North Carolina.” left out
as §2, with “Cranberry).” for “Cranberry). Five to seven days after planting, the plants were thinned to one plant per pot.”
In a manner similar to the procedure described in Example VI except that mature tobacco plants were used in place of snapbean plants, the leaf ripening effect of tobacco was determined for representative synergistic compositions at various rates of application. […] Percent tobacco leaf ripening (chlorosis) was determined by visual observation of the upper three leaves of the tobacco plant at 7 days after treatment. […]

snapbean plants [7] = assay: Defoliation of snapbean plants at various rates, 72 hours (Example VII, Table D); assay type: in vivo, Phaseolus vulgaris var. Cranberry; conditions: 72 hours after treatment
Experimental: as §1, §5
In a manner similar to the procedure described in Example VI, the defoliation effect on snapbean plants was determined for representative synergistic compositions at various rates of application except that percent defoliation of the snapbean plants was determined at 72 hours after treatment. TABLE D

[8] = Gossypium hirsutum, 720 h, read-out: Percent Inhibition

**Q.** What does the source list for `O=P(O)(O)CCCl` [Ethephon, 2-chloroethylphosphonic acid, reference compound]?
**A.** Percent Defoliation (snapbean plants [1]): 0%; Percent Defoliation (rank growth cotton): 12%; Percent Boil Opening (cotton plants; 14 days after treatment, control 41): 64%; Percent Defoliation (cotton plants; field conditions, four days after treatment): 5%; inhibition at 560.425 g/ha (cotton plant; [8]): 0%; inhibition at 1120.85 g/ha (cotton plant; [8]): 0%; inhibition at 2241.7 g/ha (cotton plant; [8]): 0%; Percent Stimulation (cotton plant; Rate 0.5 Pounds per Acre): 16%; Percent Stimulation (cotton plant; Rate 1.0 Pounds per Acre): 70%; Percent Stimulation (cotton plant; Rate 2.0 Pounds per Acre): 62%; pest or weed control at 280.212 g/ha (snapbean plants [2]): 0%; pest or weed control at 560.425 g/ha (snapbean plants [2]): 21%; Percent Defoliation (cotton [3]): 3%; Percent Defoliation (snapbean plants [4]; Rate 0.125 Pounds per Acre): 0%; Percent Defoliation (snapbean plants [4]; Rate 0.25 Pounds per Acre): 0%; Percent Defoliation (snapbean plants [4]; Rate 0.50 Pounds per Acre): 0%; Percent Defoliation (cotton [5]): 13%; Percent Defoliation (cotton [6]): 5%; Percent Ripening (Chlorosis) (mature tobacco plants): 10%; Percent Defoliation (snapbean plants [7]; Rate 0.25 Pounds per Acre): 0%; Percent Defoliation (snapbean plants [7]; Rate 0.50 Pounds per Acre): 0%
